For data set [1], the system named is Salmonella typhimurium TA98, TA102. Nature of the data set: Ames test for genotoxicity. The settings on record: 8 conc., 1.5-5000 μg/plate; +/− S9 both; strains TA98, TA102. As for the experimental part:
The Ames test determines the ability of a compound to reverse an introduced mutation in two strains of Salmonella typhimurium (selected from TA98, TA100, TA15345, TA1537, and TA102). (See for example Maron, D. M. and Ames, B. N., Mutat. Res., 1983, 113, 173-215.) Compounds were tested at eight dose levels 1.5, 5, 15, 50, 150, 500, 1500, and 5000 μg/plate in both the presence and absence of S-9 microsomal fraction in two bacterial strains (TA98, TA102). After incubation at 37° the number of revertant colonies was compared with the number of spontaneous revertants on negative (vehicle) plates. Positive control plates containing a known mutagen active in each of the strains in the presence of S-9 extract (2-aminoanthracene at 1-5 ug/plate) were also run.
For orientation: The Ames test detects mutagens through reverse mutation in bacteria.

Data set [2] in a line: Brain exposure (brain:plasma ratio, Table 24). The data set is classed as in vivo, Rats. The settings on record: for Kp at 15 min: 15 m. As for the experimental part:
Animals were fasted overnight prior to dose administration and food returned to the animals two hours after dosing. Following IV dosing, blood samples (ca 200 μL) were collected into separate tubes containing anticoagulant (K-EDTA) via the orbital plexus at various times post administration. Plasma samples were prepared immediately after collection by centrifugation for ten minutes using a tabletop centrifuge, and stored at −80° C. Brain tissue was weighed, homogenized on ice in 50 mM phosphate buffer (2 ml per brain) and the homogenate stored at −80° C. Plasma and brain homogenate samples were extracted by the addition of 5 volumes of cold acetonitrile, mixed well by vortexing and centrifuged at 4000 rpm for 15 minutes. The supernatant fractions were analyzed by LC-MS/MS operating in multiple reaction monitoring mode (MRM). The amount of parent compound in each sample was calculated by comparing the response of the analyte in the sample to that of a standard curve.

Data set [3] concerns MDR1-MDCK cell monolayers that express the multidrug transporter P-gp. Nature of the data set: In vitro cell permeability assay to predict brain penetration potential. Details: key: High: when Papp A−B≧3.0×10−6 cm/s, and efflux<3.0; Moderate: when Papp A−B≧3.0×10−6 cm/s, and 10>efflux≧3.0; Low: when either Papp A−B≧3.0×10−6 cm/s, and efflux≧10, or when Papp A−B<3.0×10−6 cm/s. To be noted: 5 μM, pH 7.4, 2 hr, from Papp A-B and efflux ratio. The data set is classed as in vitro ADME. Here is the method:
Penetration Classification (Table 24) using the in vitro cell permeability assay to predict bran penetration potential: Transwell® wells containing MDR1-MDCK cell monolayers that express the multidrug transporter P-gp were used for measuring the percent recovery of compound after dosing both sides of a cell monolayer with the test article. Monolayers were grown for 7-11 days at which time 5 μM of the test article was made by dilution from DMSO stocks into a Hank's balanced salt solution (pH 7.4), final DMSO not greater than 1%, and added to: a) the apical side for A-B permeability (apical to basal) assessment, or separately b) the basal side for the B-A permeability (basal to apical) assessment, all at pH 7.4. After a 2 hr incubation (37° C.) both the apical and the basal compartments were sampled and the amount of test article present determined by generic LC-MS/MS methods against a ≧4 point calibration curve. Experiments were done in duplicate. Apparent permeability (Papp units are reported×10−6 cm/s) are determined for the A−B and the B−A directions as well as the Efflux ratio (PappB−A/Papp A−B). The blood-brain barrier penetration potential is classified as follows: “High” when Papp A−B≧3.0×10−6 cm/s, and efflux<3.0; “Moderate” when Papp A−B≧3.0×10−6 cm/s, and 10>efflux≧3.0; and “Low” when either Papp A−B≧3.0×10−6 cm/s, and efflux≧10, or when Papp A−B<3.0×10−6 cm/s.

Where [4] appears, read: rat, brain and plasma, iv, 3 mg/kg, 3 MPK i.v., 30 m, read-out: RATIO: Brain:plasma (Direct).
Where [5] appears, read: rat, brain and plasma, iv, 3 mg/kg, 3 MPK i.v., 1 hr, read-out: RATIO: Brain:plasma (Direct).
Setting [6] is: rat, brain and plasma, iv, 3 mg/kg, 3 MPK i.v., avg, read-out: RATIO: Brain:plasma (Direct).

The structures appear in SMILES notation. Read-outs that look alike come from different tables or passages of the source.

Consider `CCCCN(CCc1ccc(Cl)c(Cl)c1)CC(O)COc1ccc(NS(C)(=O)=O)cc1` (stereo not drawn) [Compound 93-31], for which the “Genotoxicity (Ames) Result” value in data set [1] is on record as “No positive”.
Take `O=c1[nH]c2ccc(OC[C@@H](O)CN3CCN(c4ccc(Cl)cc4)CC3)cc2o1` [NP10056]: in data set [1], the “Genotoxicity (Ames) Result” value is recorded as “No positive”.
As for `O=c1[nH]c2ccc(OC[C@@H](O)CN3CCN(c4ccc(Cl)cc4)CC3)cc2[nH]1` [NP10122], the “Genotoxicity (Ames) Result” value in data set [1] was “No positive”.
On to `Nc1ccc(OC[C@@H](O)CN2CCN(c3ccc(Cl)c(Cl)c3)C2=O)cc1` [NP10226], for which, in data set [1], the “Genotoxicity (Ames) Result” value is given as “No positive”.
The same measure, in the same setting: then `Nc1ccc(OC[C@@H](O)CN2CCN(c3ccc(Cl)cc3)CC2)cc1` [NP10231], with “No positive”.
As to `Oc1ccc(OC[C@@H](O)CN2CCN(c3ccc(Cl)cc3)CC2)cc1` [drawing 800], in data set [2] (setting [4]), the Kp at 30 min was 11. Besides, the Kp at 1 h in data set [2] (setting [5]) was 9.5. Besides, the Kp in data set [2] (setting [6]) turned out to be 10.2. Also, in data set [3], the “BBB Pene Classification” value was “High (when Papp A−B≧3.0×10−6 cm/s, and efflux<3.0)”.
As to `Cc1ccc(N2CCN(C[C@H](O)COc3ccc4[nH]c(=O)oc4c3)CC2)cc1` [drawing 801], the Kp at 30 min in data set [2] (setting [4]) came to 2.3. In data set [2] (setting [5]), the Kp at 1 h came out at 2.9. Further, the Kp at 2 h in data set [2] (rat, brain and plasma, iv, 3 mg/kg, 3 MPK i.v., 2 hr, read-out: RATIO: Brain:plasma (Direct)) is 1.7. In addition, the Kp in data set [2] (setting [6]) turned out to be 2.3. Further, the “BBB Pene Classification” value in data set [3] was “Moderate (when Papp A−B≧3.0×10−6 cm/s, and 10>efflux≧3.0)”.
For `CS(=O)(=O)Nc1ccc(OC[C@@H](O)CN2CCN(c3ccc(F)c(F)c3)CC2)cc1` [drawing 802], in data set [2] (rat, brain and plasma, ip, 60 mg/kg, 60 MPK, i.p., 30 m, read-out: RATIO: Brain:plasma (Direct)), the Kp at 30 min was 0.7. Also, the Kp at 2 h in data set [2] (rat, brain and plasma, ip, 60 mg/kg, 60 MPK, i.p., 2 hr, read-out: RATIO: Brain:plasma (Direct)) was 0.7. For the same molecule, the Kp at 4 h in data set [2] (rat, brain and plasma, ip, 60 mg/kg, 60 MPK, i.p., 4 hr, read-out: RATIO: Brain:plasma (Direct)) was determined as 0.9. Also, the Kp in data set [2] (rat, brain and plasma, ip, 60 mg/kg, 60 MPK, i.p., avg, read-out: RATIO: Brain:plasma (Direct)) is 0.77. Further, in data set [3], the “BBB Pene Classification” value was “Moderate (when Papp A−B≧3.0×10−6 cm/s, and 10>efflux≧3.0)”.
With `NC(=O)Nc1ccc(OC[C@@H](O)CN2CCN(c3ccc(Cl)cc3)CC2)cc1` [drawing 803], the Kp at 30 min in data set [2] (rat, brain and plasma, iv, 1 mg/kg, 1MPK i.v., 30 m, read-out: RATIO: Brain:plasma (Direct)) came to 0.24. For the same molecule, the Kp at 6 h in data set [2] (rat, brain and plasma, iv, 3 mg/kg, 3 MPK i.v., 6 hr, read-out: RATIO: Brain:plasma (Direct)) stood at 0.49. Besides, the Kp at 1 hr in data set [2] (rat, brain and plasma, iv, 3 MPK i.v. @ 6 hr, 1MPK @ 0.5 hr and 2 hr, 1 hr, read-out: RATIO: Brain:plasma (Direct)) was 0.53. Besides, the Kp in data set [2] (rat, brain and plasma, iv, 3 MPK i.v. @ 6 hr, 1MPK @ 0.5 hr and 2 hr, avg, read-out: RATIO: Brain:plasma (Direct)) was 0.42. In data set [3], the “BBB Pene Classification” value is recorded as “Low”.
As to `O=C1N(C[C@H](O)COc2ccc(O)cc2)CCN1c1ccc(Cl)cc1` [drawing 804], in data set [2] (setting [4]), the Kp at 30 min is 0.68. In addition, the Kp at 1 h in data set [2] (setting [5]) was 0.49. Further, the Kp in data set [2] (setting [6]) is 0.59. Moreover, the “BBB Pene Classification” value in data set [3] was “High (when Papp A−B≧3.0×10−6 cm/s, and efflux<3.0)”.
Take `NC(=O)Nc1ccc(OC[C@@H](O)CN2CCN(c3ccc(Cl)cc3)C2=O)cc1` [drawing 805]: in data set [2] (1 MPK i.v.), the “RATIO: Brain:plasma (Direct)” value was “Below Detection limit (~0)”. The “BBB Pene Classification” value in data set [3] is “Low”.
For the molecule `O=C(COc1ccc2[nH]c(=O)oc2c1)N1CCN(c2ccc(Cl)c(Cl)c2)CC1` [drawing 806], the Kp at 15 min in data set [2] (rat, brain and plasma, ip, 10 mg/kg, 10 MPK i.p., read-out: RATIO: Brain:plasma (Direct)) was 0.25. Also, the Kp at 30 min in data set [2] (rat, brain and plasma, ip, 10 mg/kg, 10 MPK i.p., 30 m, read-out: RATIO: Brain:plasma (Direct)) was determined as 0.49. Also, the Kp at 1 h in data set [2] (rat, brain and plasma, ip, 10 mg/kg, 10 MPK i.p., 1 hr, read-out: RATIO: Brain:plasma (Direct)) was 0.3. Moreover, the Kp at 2 h in data set [2] (rat, brain and plasma, ip, 10 mg/kg, 10 MPK i.p., 2 hr, read-out: RATIO: Brain:plasma (Direct)) came out at 0.36. Moreover, the Kp in data set [2] (rat, brain and plasma, ip, 10 mg/kg, 10 MPK i.p., avg, read-out: RATIO: Brain:plasma (Direct)) was found to be 0.33. Also, the “BBB Pene Classification” value in data set [3] is “Moderate (when Papp A−B≧3.0×10−6 cm/s, and 10>efflux≧3.0)”.
In the case of `O=C(COc1ccc2[nH]c(=O)[nH]c2c1)N1CCN(c2ccc(Cl)c(Cl)c2)CC1` [drawing 807], in data set [2] (rat, brain and plasma, iv, 1 mg/kg i.v., read-out: RATIO: Brain:plasma (Direct)), the Kp at 15 min amounted to 0.04. The Kp at 30 min in data set [2] (rat, brain and plasma, iv, 1 mg/kg i.v., 30 m, read-out: RATIO: Brain:plasma (Direct)) came out at 0.06. The Kp at 1 h in data set [2] (rat, brain and plasma, iv, 1 mg/kg i.v., 1 hr, read-out: RATIO: Brain:plasma (Direct)) is 0.07. For the same molecule, the Kp at 3 h in data set [2] (rat, brain and plasma, iv, 1 mg/kg i.v., 3 hr, read-out: RATIO: Brain:plasma (Direct)) amounted to 0.1. Besides, the Kp in data set [2] (rat, brain and plasma, iv, 1 mg/kg i.v., avg., read-out: RATIO: Brain:plasma (Direct)) was 0.07. The “BBB Pene Classification” value in data set [3] was “Moderate (when Papp A−B≧3.0×10−6 cm/s, and 10>efflux≧3.0)”.
Take `Oc1ccc(OC[C@@H](O)CSc2nc3cc(Cl)c(Cl)cc3[nH]2)cc1` [drawing 808]: in data set [2] (3 MPK i.v., 2 hr), the “RATIO: Brain:plasma (Direct)” value is listed as “BLQ”. For the same molecule, the Kp at 30 min in data set [2] (setting [4]) was 0.15. The Kp at 1 h in data set [2] (setting [5]) came to 0.35. Moreover, in data set [2] (setting [6]), the Kp amounted to 0.25. The “BBB Pene Classification” value in data set [3] was “High (when Papp A−B≧3.0×10−6 cm/s, and efflux<3.0)”.
For `O=c1[nH]c2ccc(OC[C@@H](O)CSc3nc4cc(Cl)c(Cl)cc4[nH]3)cc2o1` [drawing 809], the “RATIO: Brain:plasma (Direct)” value in data set [2] (3 MPK i.v., 30 m) is “BLQ (avg); BLQ (30 m), BLQ (1 hr),”; in data set [2] (3 MPK i.v., 1 hr), “BLQ (avg); BLQ (30 m), BLQ (1 hr),”; in data set [2] (3 MPK i.v., avg), “BLQ (avg); BLQ (30 m), BLQ (1 hr),”. The “BBB Pene Classification” value in data set [3] was “Moderate (when Papp A−B≧3.0×10−6 cm/s, and 10>efflux≧3.0)”.

The values above are taken from patent US20110160223A1, “NMDA Receptor Antagonists for the Treatment of Neuropsychiatric Disorders” (priority 2008, published 2011).
